Data: ChEMBL document CHEMBL4507296 (2021)
The source made the active and inactive calls. The rule behind the calls is not given here.

Experiments:
[1] = target: Transient receptor potential cation channel subfamily M member 8 (Homo sapiens, UniProt Q7Z2W7); assay: Cold activation
[2] = target: AP2-associated protein kinase 1 (Homo sapiens) (UniProt Q2M2I8); conditions: Compound concentration 1000.0 nM
[3] = target: Activin receptor type-2B (Homo sapiens) (UniProt Q13705); conditions: Compound concentration 1000.0 nM
[4] = target: BMP-2-inducible protein kinase (Homo sapiens) (UniProt Q9NSY1); conditions: Compound concentration 1000.0 nM
[5] = target: Bone morphogenetic protein receptor type-1A (Homo sapiens) (UniProt P36894); conditions: Compound concentration 1000.0 nM
Bone morphogenetic protein receptor type-1A (Homo sapiens), sequence (P36894 whole entry): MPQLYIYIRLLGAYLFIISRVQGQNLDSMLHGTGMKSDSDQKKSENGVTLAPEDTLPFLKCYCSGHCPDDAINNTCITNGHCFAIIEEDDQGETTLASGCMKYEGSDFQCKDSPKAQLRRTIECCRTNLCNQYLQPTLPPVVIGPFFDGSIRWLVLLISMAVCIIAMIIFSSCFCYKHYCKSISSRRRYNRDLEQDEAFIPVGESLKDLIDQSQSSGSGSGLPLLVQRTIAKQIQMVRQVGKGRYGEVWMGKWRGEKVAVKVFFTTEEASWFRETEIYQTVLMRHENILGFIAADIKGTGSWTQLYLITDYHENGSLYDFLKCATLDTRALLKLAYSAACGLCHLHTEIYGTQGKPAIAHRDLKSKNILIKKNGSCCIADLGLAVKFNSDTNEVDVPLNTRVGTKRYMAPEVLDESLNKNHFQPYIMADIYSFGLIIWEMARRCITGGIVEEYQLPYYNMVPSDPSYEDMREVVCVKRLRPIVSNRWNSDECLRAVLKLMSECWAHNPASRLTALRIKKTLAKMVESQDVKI

[6] = target: Mitotic checkpoint serine/threonine-protein kinase BUB1 (Homo sapiens) (UniProt O43683); conditions: Compound concentration 1000.0 nM
[7] = target: Calcium/calmodulin-dependent protein kinase type 1G (Homo sapiens) (UniProt Q96NX5); conditions: Compound concentration 1000.0 nM
[8] = target: Calcium/calmodulin-dependent protein kinase type IV (Homo sapiens) (UniProt Q16566); conditions: Compound concentration 1000.0 nM
[9] = target: Cyclin-dependent kinase 11A (Homo sapiens) (UniProt Q9UQ88); conditions: Compound concentration 1000.0 nM
Cyclin-dependent kinase 11A (Homo sapiens), sequence (Q9UQ88 whole entry): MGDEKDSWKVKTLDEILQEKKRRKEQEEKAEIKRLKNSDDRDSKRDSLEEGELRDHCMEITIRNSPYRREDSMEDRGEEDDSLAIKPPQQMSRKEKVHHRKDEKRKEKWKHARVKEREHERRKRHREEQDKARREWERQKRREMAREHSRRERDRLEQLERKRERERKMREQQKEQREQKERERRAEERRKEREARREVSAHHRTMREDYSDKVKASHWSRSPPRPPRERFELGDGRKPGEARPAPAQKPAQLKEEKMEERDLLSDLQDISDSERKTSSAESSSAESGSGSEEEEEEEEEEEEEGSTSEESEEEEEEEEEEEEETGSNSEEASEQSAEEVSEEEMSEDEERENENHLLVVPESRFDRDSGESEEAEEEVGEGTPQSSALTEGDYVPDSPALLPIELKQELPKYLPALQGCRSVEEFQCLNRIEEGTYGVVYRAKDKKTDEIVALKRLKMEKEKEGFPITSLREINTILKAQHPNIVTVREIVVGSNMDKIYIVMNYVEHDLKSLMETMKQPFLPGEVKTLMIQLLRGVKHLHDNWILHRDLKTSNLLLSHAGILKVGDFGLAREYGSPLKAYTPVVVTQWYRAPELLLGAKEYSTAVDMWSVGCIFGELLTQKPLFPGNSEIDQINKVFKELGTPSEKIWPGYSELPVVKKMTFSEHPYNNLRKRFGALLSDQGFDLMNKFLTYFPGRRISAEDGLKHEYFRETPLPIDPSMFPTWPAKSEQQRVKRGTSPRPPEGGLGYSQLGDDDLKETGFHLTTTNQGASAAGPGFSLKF

[10] = target: Dual specificity protein kinase CLK3 (Homo sapiens) (UniProt P49761); conditions: Compound concentration 1000.0 nM
Dual specificity protein kinase CLK3 (Homo sapiens), sequence (P49761 whole entry, looked up, canonical isoform): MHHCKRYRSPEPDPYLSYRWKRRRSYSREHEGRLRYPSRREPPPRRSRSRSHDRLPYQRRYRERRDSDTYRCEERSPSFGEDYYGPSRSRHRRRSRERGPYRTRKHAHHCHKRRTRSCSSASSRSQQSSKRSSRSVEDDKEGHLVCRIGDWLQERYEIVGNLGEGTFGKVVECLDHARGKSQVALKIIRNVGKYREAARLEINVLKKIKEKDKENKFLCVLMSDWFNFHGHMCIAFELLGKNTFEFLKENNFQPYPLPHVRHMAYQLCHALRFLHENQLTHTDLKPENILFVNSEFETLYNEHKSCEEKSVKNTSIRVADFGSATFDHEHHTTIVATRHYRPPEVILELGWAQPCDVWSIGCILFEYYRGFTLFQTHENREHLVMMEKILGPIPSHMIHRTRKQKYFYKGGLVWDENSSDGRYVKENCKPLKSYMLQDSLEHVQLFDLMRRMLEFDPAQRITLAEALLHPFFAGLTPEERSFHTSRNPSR

[11] = target: Casein kinase I isoform delta (Homo sapiens) (UniProt P48730); conditions: Compound concentration 1000.0 nM
[12] = target: Casein kinase I isoform gamma-3 (Homo sapiens) (UniProt Q9Y6M4); conditions: Compound concentration 1000.0 nM
[13] = target: Death-associated protein kinase 3 (Homo sapiens) (UniProt O43293); conditions: Compound concentration 1000.0 nM
[14] = test system: Epidermal growth factor receptor (Homo sapiens), P00533 [UNDEFINED MUTATION]; conditions: Compound concentration 1000.0 nM
[15] = target: Mitogen-activated protein kinase 3 (Homo sapiens) (UniProt P27361); conditions: Compound concentration 1000.0 nM
[16] = target: Receptor-type tyrosine-protein kinase FLT3 (Homo sapiens) (UniProt P36888); conditions: Compound concentration 1000.0 nM
[17] = test system: Receptor-type tyrosine-protein kinase FLT3 (Homo sapiens), P36888 [D835V]; conditions: Compound concentration 1000.0 nM
[18] = target: Glycogen synthase kinase-3 alpha (Homo sapiens) (UniProt P49840); conditions: Compound concentration 1000.0 nM
[19] = target: Hormonally up-regulated neu tumor-associated kinase (Homo sapiens) (UniProt P57058); conditions: Compound concentration 1000.0 nM
Hormonally up-regulated neu tumor-associated kinase (Homo sapiens), sequence (P57058 whole entry): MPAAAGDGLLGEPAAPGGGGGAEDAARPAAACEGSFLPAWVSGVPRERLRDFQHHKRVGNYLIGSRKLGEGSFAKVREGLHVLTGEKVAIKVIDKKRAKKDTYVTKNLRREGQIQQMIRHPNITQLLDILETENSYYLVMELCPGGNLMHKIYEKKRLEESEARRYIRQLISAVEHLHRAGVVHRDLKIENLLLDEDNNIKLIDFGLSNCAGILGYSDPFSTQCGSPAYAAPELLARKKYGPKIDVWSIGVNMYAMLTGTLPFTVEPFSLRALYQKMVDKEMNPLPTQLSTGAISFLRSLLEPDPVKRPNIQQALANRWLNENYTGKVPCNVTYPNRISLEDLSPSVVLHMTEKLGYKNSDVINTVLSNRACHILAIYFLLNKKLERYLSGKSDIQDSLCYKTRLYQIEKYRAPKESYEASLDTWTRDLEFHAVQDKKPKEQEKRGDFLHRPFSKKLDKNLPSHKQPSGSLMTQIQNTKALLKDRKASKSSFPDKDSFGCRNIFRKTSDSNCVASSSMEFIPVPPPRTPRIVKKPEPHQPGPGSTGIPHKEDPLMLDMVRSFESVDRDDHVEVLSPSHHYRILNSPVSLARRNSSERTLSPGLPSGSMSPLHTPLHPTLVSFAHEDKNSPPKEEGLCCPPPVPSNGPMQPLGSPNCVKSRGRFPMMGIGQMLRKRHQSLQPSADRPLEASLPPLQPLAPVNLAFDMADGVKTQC

[20] = target: Leucine-rich repeat serine/threonine-protein kinase 2 (Homo sapiens) (UniProt Q5S007); conditions: Compound concentration 1000.0 nM
[21] = target: Microtubule-associated serine/threonine-protein kinase 1 (Homo sapiens) (UniProt Q9Y2H9); conditions: Compound concentration 1000.0 nM
[22] = target: Misshapen-like kinase 1 (Homo sapiens) (UniProt Q8N4C8); conditions: Compound concentration 1000.0 nM
[23] = target: Mitogen-activated protein kinase kinase kinase 9 (Homo sapiens) (UniProt P80192); conditions: Compound concentration 1000.0 nM
[24] = target: Macrophage-stimulating protein receptor (Homo sapiens) (UniProt Q04912); conditions: Compound concentration 1000.0 nM
[25] = target: Serine/threonine-protein kinase mTOR (Homo sapiens) (UniProt P42345); conditions: Compound concentration 1000.0 nM
[26] = target: Myosin light chain kinase family member 4 (Homo sapiens) (UniProt Q86YV6); conditions: Compound concentration 1000.0 nM
[27] = target: Mitogen-activated protein kinase 12 (Homo sapiens) (UniProt P53778); conditions: Compound concentration 1000.0 nM
[28] = test system: Phosphatidylinositol 4,5-bisphosphate 3-kinase catalytic subunit alpha isoform (Homo sapiens), P42336 [E545K]; conditions: Compound concentration 1000.0 nM
[29] = target: Phosphatidylinositol 4-phosphate 5-kinase type-1 alpha (Homo sapiens) (UniProt Q99755); conditions: Compound concentration 1000.0 nM
[30] = target: Phosphatidylinositol 5-phosphate 4-kinase type-2 gamma (Homo sapiens) (UniProt Q8TBX8); conditions: Compound concentration 1000.0 nM
[31] = target: cAMP-dependent protein kinase catalytic subunit PRKX (Homo sapiens) (UniProt P51817); conditions: Compound concentration 1000.0 nM
[32] = target: Proto-oncogene tyrosine-protein kinase receptor Ret (Homo sapiens) (UniProt P07949); conditions: Compound concentration 1000.0 nM
Proto-oncogene tyrosine-protein kinase receptor Ret (Homo sapiens), sequence (P07949 whole entry): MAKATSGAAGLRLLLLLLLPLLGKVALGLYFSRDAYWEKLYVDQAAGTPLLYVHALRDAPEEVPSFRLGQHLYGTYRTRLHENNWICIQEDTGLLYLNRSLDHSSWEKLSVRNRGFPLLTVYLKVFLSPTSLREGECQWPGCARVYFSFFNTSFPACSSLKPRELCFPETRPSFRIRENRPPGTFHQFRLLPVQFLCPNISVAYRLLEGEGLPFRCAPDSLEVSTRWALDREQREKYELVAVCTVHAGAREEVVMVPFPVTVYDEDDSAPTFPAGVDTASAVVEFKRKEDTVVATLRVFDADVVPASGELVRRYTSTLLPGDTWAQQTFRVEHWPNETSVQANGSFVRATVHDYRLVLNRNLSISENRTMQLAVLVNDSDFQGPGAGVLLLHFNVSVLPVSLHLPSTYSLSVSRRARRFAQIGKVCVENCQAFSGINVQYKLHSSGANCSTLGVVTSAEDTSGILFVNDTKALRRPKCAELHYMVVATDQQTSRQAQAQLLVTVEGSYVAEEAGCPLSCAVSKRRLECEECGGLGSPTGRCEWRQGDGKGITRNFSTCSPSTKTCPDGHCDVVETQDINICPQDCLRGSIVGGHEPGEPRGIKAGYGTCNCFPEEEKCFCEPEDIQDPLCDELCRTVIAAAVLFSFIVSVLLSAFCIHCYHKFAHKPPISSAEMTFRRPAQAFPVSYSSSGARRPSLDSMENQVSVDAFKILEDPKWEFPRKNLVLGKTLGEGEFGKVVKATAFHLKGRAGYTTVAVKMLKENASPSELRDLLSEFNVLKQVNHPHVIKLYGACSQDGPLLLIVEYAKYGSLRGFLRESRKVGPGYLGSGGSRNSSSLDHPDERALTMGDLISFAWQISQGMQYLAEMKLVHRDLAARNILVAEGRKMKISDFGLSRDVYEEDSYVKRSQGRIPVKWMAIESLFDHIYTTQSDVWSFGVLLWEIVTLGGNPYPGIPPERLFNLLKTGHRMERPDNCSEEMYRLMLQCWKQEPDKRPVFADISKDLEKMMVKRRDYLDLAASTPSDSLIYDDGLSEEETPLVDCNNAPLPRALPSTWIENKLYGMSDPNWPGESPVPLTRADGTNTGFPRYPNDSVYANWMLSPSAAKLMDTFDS

[33] = test system: Proto-oncogene tyrosine-protein kinase receptor Ret (Homo sapiens), P07949 [V804M]; conditions: Compound concentration 1000.0 nM
Proto-oncogene tyrosine-protein kinase receptor Ret (Homo sapiens), P07949 [V804M], sequence (P07949 whole entry V804M): as the sequence (P07949 whole entry) above, with V804M counted along it

[34] = target: Receptor-interacting serine/threonine-protein kinase 1 (Homo sapiens) (UniProt Q13546); conditions: Compound concentration 1000.0 nM
[35] = target: Rho-associated protein kinase 1 (Homo sapiens) (UniProt Q13464); conditions: Compound concentration 1000.0 nM
[36] = target: Serine/threonine-protein kinase SIK2 (Homo sapiens) (UniProt Q9H0K1); conditions: Compound concentration 1000.0 nM
[37] = target: STE20-like serine/threonine-protein kinase (Homo sapiens) (UniProt Q9H2G2); conditions: Compound concentration 1000.0 nM
[38] = target: NUAK family SNF1-like kinase 2 (Homo sapiens) (UniProt Q9H093); conditions: Compound concentration 1000.0 nM
[39] = target: Tyrosine-protein kinase SYK (Homo sapiens) (UniProt P43405); conditions: Compound concentration 1000.0 nM
[40] = target: BDNF/NT-3 growth factors receptor (Homo sapiens) (UniProt Q16620); conditions: Compound concentration 1000.0 nM
BDNF/NT-3 growth factors receptor (Homo sapiens), sequence (Q16620 32-822 limits assumed): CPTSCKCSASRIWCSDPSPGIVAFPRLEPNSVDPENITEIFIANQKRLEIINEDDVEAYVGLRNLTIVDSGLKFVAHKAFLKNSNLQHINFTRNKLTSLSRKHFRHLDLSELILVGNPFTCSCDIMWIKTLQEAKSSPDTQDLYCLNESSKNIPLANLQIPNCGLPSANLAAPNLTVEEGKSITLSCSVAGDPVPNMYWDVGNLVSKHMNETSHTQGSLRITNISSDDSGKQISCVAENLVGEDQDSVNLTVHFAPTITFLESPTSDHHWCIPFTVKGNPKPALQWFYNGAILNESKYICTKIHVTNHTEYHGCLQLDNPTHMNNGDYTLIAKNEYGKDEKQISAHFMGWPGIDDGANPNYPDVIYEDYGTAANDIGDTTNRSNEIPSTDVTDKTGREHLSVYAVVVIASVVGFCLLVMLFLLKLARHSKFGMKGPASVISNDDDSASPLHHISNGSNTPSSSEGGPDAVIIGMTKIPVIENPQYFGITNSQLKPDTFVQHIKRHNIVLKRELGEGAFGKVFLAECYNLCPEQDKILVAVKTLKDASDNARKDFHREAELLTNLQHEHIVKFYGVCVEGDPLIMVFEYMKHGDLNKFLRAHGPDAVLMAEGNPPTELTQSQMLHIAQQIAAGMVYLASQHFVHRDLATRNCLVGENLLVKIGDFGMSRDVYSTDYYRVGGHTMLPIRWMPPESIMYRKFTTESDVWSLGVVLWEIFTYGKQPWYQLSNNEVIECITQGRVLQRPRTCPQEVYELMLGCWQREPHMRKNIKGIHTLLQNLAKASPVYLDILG

[41] = target: Non-receptor tyrosine-protein kinase TYK2 (Homo sapiens) (UniProt P29597); conditions: Compound concentration 1000.0 nM
[42] = target: Serine/threonine-protein kinase 25 (Homo sapiens) (UniProt O00506); conditions: Compound concentration 1000.0 nM
[43] = target: Histamine H3 receptor (Homo sapiens) (UniProt Q9Y5N1); conditions: Compound concentration 10.0 uM
Histamine H3 receptor (Homo sapiens), sequence (Q9Y5N1 whole entry): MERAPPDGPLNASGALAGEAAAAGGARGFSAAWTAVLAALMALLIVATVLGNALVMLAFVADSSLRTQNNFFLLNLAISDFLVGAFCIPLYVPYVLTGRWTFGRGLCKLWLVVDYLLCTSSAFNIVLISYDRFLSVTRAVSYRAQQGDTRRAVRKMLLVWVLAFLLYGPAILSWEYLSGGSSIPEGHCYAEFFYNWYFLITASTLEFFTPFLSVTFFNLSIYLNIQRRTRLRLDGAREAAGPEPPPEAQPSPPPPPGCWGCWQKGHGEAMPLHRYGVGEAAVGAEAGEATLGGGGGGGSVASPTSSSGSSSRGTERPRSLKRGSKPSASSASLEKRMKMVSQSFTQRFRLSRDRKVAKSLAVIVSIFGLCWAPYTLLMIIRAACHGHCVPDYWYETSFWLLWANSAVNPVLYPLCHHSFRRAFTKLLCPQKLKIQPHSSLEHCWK

[44] = target: Alpha-1B adrenergic receptor (Homo sapiens) (UniProt P35368); conditions: Compound concentration 10.0 uM
[45] = target: Alpha-2C adrenergic receptor (Homo sapiens) (UniProt P18825); conditions: Compound concentration 10.0 uM

C[C@H](c1ccc(F)cc1)N(Cc1cccc(C(=O)O)c1)C(=O)c1cnc2ccccc2c1 [PF-05105679] was tested, and the IC50 [1] was 0.48 µM (active), the residual activity [2] was 100% and the residual activity [3] was 100%. The residual activity [4] was 96%, the residual activity [5] was 100% and the residual activity [6] was 89%. It also gave a residual activity [7] of 100%, a residual activity [8] of 100% and a residual activity [9] of 100%. For the same compound, the residual activity [10] was 100%, the residual activity [11] was 92% and the residual activity [12] was 100%. It also gave a residual activity [13] of 100%, a residual activity [14] of 100% and a residual activity [15] of 100%. For the same compound, the residual activity [16] was 100%, the residual activity [17] was 98% and the residual activity [18] was 100%. It also gave a residual activity [19] of 100%, a residual activity [20] of 100% and a residual activity [21] of 100%. For the same compound, the residual activity [22] was 100%, the residual activity [23] was 100% and the residual activity [24] was 100%. The residual activity [25] was 93%, the residual activity [26] was 99% and the residual activity [27] was 65%. The residual activity [28] was 100%, the residual activity [29] was 100% and the residual activity [30] was 81%. It also gave a residual activity [31] of 100%, a residual activity [32] of 100% and a residual activity [33] of 100%. It also gave a residual activity [34] of 100%, a residual activity [35] of 100% and a residual activity [36] of 96%. It also gave a residual activity [37] of 100%, a residual activity [38] of 100% and a residual activity [39] of 87%. For the same compound, the residual activity [40] was 100%, the residual activity [41] was 92% and the residual activity [42] was 100%. For the same compound, the inhibition [43] was 16.6%, the inhibition [44] was -0.5% and the inhibition [45] was 3.68%.
